Where a name gives a salt, the structure may show the parent alone.
| Structure (SMILES) | melting point |
| --- | --- |
| CC[C@@H](COC)n1cc(Cl)nc(N2CCc3cc(Br)cc(Cl)c32)c1=O [Example 548, 3-(5-Bromo-7-chloro-2,3-dihydro-1H-indol-1-yl)-5-chloro-1-[(1S)-1-(methoxymethyl)propyl]-2(1H)-pyrazinone] | 121 to 122 °C |
| CCC(CC)Nc1nc(C)nc(N2CCc3cc(Cl)cc(Cl)c32)c1C=O [Example 6, 4-(5,7-dichloro-2,3-dihydro-1H-indol-1-yl)-6-(1-ethylpropylamino)-5-formyl-2-methylpyrimidine] | 182 to 184 °C |
| CC[C@@H](COC)n1cc(Br)nc(N2CCc3cc(Cl)cc(Cl)c32)c1=O [Example 531, 5-Bromo-3-(5,7-dichloro-2,3-dihydro-1H-indol-1-yl)-1-[(1S)-1-(methoxymethyl)propyl]-2(1H)-pyrazinone] | 152 to 154 °C |
| CC[C@H](COC)n1cc(Br)nc(N2CCCc3cc(OC)cc(Br)c32)c1=O [Example 554, 5-Bromo-3-(8-bromo-6-methoxy-1,2,3,4-tetrahydroquinoline)-1-[(1R)-1-(methoxymethyl)propyl]-2(1H)-pyrazinone] | 102 to 103 °C |
| CCC(C)Nc1cc(N2CCc3cc(OC)cc(Cl)c32)nc(C)n1 (stereo not shown) [Example 310, 4-(7-chloro-5-methoxy-2,3-dihydro-1H-indol-1-yl)-6-(1-methylpropylamino)-2-methylpyrimidine] | 102 to 105 °C |
| CC[C@H](COC)n1cc(Br)nc(N2CCc3cc(OC)c(F)c(Cl)c32)c1=O [Example 528, 5-Bromo-3-(7-chloro-6-fluoro-5-methoxy-2,3-dihydro-1H-indol-1-yl)-1-[(1R)-1-(methoxymethyl)propyl]-2(1H)-pyrazinone] | 150 to 152 °C |
| CCC(COC)Nc1nc(C)nc(N2CCc3cc(OC)cc(Cl)c32)c1I (stereo not shown) [Example 74, 4-(7-chloro-5-methoxy-2,3-dihydro-1H-indol-1-yl)-5-iodo-6-[1-(1-methoxymethyl)propylamino]-2-methylpyrimidine] | 150 to 152 °C |
| CC[C@@H](COC)n1cc(Cl)nc(N2CCc3cc(Cl)cc(Cl)c32)c1=O [Example 530, 5-Chloro-3-(5,7-dichloro-2,3-dihydro-1H-indol-1-yl)-1-[(1S)-1-(methoxymethyl)propyl]-2(1H)-pyrazinone] | 143 to 146 °C |
| CC[C@@H](COC)n1cc(Br)nc(N2CCc3cc(OC)cc(C)c32)c1=O (as salt: hydrochloride) [Example 549, 5-Bromo-3-(5-methoxy-7-methyl-2,3-dihydro-1H-indol-1-yl)-1-[(1S)-1-(methoxymethyl)propyl]-2(1H)-pyrazinone] | 115 to 117 °C |
| CCC(COC)Nc1nc(C)nc(N2CCc3cc(OC)cc(Cl)c32)c1C#N (stereo not shown) [Example 75, 4-(7-chloro-5-methoxy-2,3-dihydro-1H-indol-1-yl)-5-cyano-6-[1-(1-methoxymethyl)propylamino]-2-methylpyrimidine] | 182 to 183 °C |
| CC[C@H](C1CC1)n1cc(Cl)nc(N2CCc3cc(OC)c(F)c(Cl)c32)c1=O [Example 513, 5-Chloro-3-(7-chloro-6-fluoro-5-methoxy-2,3-dihydro-1H-indol-1-yl)-1-[(1R)-1-cyclopropylpropyl]-2(1H)-pyrazinone] | 128 to 130 °C |
| CSCCn1cc(Cl)nc(N2CCc3cc(Cl)cc(Cl)c32)c1=O [Example 535, 5-Chloro-3-(5,7-dichloro-2,3-dihydro-1H-indol-1-yl)-1-[2-(methylthio)ethyl]-2(1H)-pyrazinone] | 127 to 128 °C |
| CCC(CC)Nc1nc(C)nc(N2CCc3cc(Cl)cc(Cl)c32)c1Cl [Example 2, 5-chloro-4-(5,7-dichloro-2,3-dihydro-1H-indol-1-yl)-6-(1-ethylpropylamino)-2-methylpyrimidine] | 132 to 134 °C |
| CCC(CC)n1cc(C)nc(N2CCc3cc(Cl)cc(Cl)c32)c1=O [Example 451, 3-(5,7-Dichloro-2,3-dihydro-1H-indol-1-yl)-1-(1-ethylpropyl)-5-methyl-2(1H)-pyrazinone] | 137 to 139 °C |
| CC[C@H](C1CC1)n1cc(Cl)nc(N2CCc3cc(Cl)cc(Cl)c32)c1=O [Example 511, 5-Chloro-1-[(1R)-1-cyclopropylpropyl]-3-(5,7-dichloro-2,3-dihydro-1H-indol-1-yl)-2(1H)-pyrazinone] | 166 to 168 °C |
| CCC(CC)n1cc(C#N)nc(N2CCc3cc(Cl)cc(Cl)c32)c1=O [Example 541, 6-(5,7-Dichloro-2,3-dihydro-1H-indol-1-yl)-4-(1-ethylpropyl)-4,5-dihydro-5-oxo-2-pyrazinecarbonitrile] | 197 to 199 °C |

Second part, the compound after the results:

| melting point | Structure (SMILES) |
| --- | --- |
| 118 to 120 °C | CC[C@H](C1CC1)n1cc(Cl)nc(N2CCc3cc(OC)cc(Cl)c32)c1=O (as salt: hydrochloride) [Example 508, 5-Chloro-3-(7-chloro-5-methoxy-2,3-dihydro-1H-indol-1-yl)-1-[(1R)-1-cyclopropylpropyl]-2(1H)-pyrazinone] |
| 62 to 64 °C | CC[C@H](COC)n1cc(Cl)nc(N2CCc3cc(OC)cc(C)c32)c1=O (as salt: hydrochloride) [Example 545, 5-Chloro-3-(5-methoxy-7-methyl-2,3-dihydro-1H-indol-1-yl)-1-[(1R)-1-(methoxymethyl)propyl]-2(1H)-pyrazinone] |
| 176 to 178 °C | CCC(C)n1cc(Cl)nc(N2CCc3cc(OC)cc(C)c32)c1=O (stereo not shown) (as salt: hydrochloride) [Example 503, 5-Chloro-3-(5-methoxy-7-methyl-2,3-dihydro-1H-indol-1-yl)-1-(1-methylpropyl)-2(1H)-pyrazinone] |
| 94 to 96 °C | COc1cc(C)c2c(c1)CCN2c1nc(Cl)cn(C(C(C)C)C(C)C)c1=O (as salt: hydrochloride) [Example 532] |
| 127 to 129 °C | CC[C@H](C1CC1)n1cc(Cl)nc(N2CCCc3cc(OC)cc(Br)c32)c1=O [Example 551, 3-(8-Bromo-6-methoxy-1,2,3,4-tetrahydroquinoline)-5-chloro-1-[(1R)-1-cyclopropylpropyl]-2(1H)-pyrazinone] |
| 143 to 145 °C | CCC(C)n1cc(Cl)nc(N2CCc3cc(OC)cc(Cl)c32)c1=O (stereo not shown) (as salt: hydrochloride) [Example 501, 5-Chloro-3-(7-chloro-5-methoxy-2,3-dihydro-1H-indol-1-yl)-1-(1-methylpropyl)-2(1H)-pyrazinone] |
| 125 to 126 °C | CCC(CC)n1cc(Cl)nc(N2CCCc3cc(OC)cc(Br)c32)c1=O [Example 550, 3-(8-Bromo-6-methoxy-1,2,3,4-tetrahydroquinoline)-5-chloro-1-(1-ethylpropyl)-2(1H)-pyrazinone] |
| 155 to 157 °C | CCC(C)n1cc(Cl)nc(N2CCc3cc(OC)cc(Br)c32)c1=O (stereo not shown) (as salt: hydrochloride) [Example 502, 3-(7-Bromo-5-methoxy-2,3-dihydro-1H-indol-1-yl)-5-chloro-1-(1-methylpropyl)-2(1H)-pyrazinone] |
| 118 to 119 °C | CC[C@@H](C1CC1)n1cc(Cl)nc(N2CCCc3cc(OC)cc(Br)c32)c1=O [Example 552, 3-(8-Bromo-6-methoxy-1,2,3,4-tetrahydroquinoline)-5-chloro-1-[(1S)-1-cyclopropylpropyl]-2(1H)-pyrazinone] |
| 165 °C | CC[C@@H](C1CC1)n1cc(Cl)nc(N2CCc3cc(Br)cc(Br)c32)c1=O [Example 518, 5-Chloro-1-[(1S)-1-cyclopropylpropyl]-3-(5,7-dibromo-2,3-dihydro-1H-indol-1-yl)-2(1H)-pyrazinone] |
| 130 to 132 °C | CCC(CC)n1cc(Cl)nc(N2CCc3cc(OC)cc(Br)c32)c1=O (as salt: hydrochloride) [Example 441, 3-(7-Bromo-5-methoxy-2,3-dihydro-1H-indol-1-yl)-5-chloro-1-(1-ethylpropyl)-2(1H)-pyrazinone] |
| 102 to 104 °C | CC[C@H](COC)n1cc(Cl)nc(N2CCc3cc(OC)cc(Br)c32)c1=O (as salt: hydrochloride) [Example 523, 3-(7-Bromo-5-methoxy-2,3-dihydro-1H-indol-1-yl)-5-chloro-1-[(1R)-1-(methoxymethyl)propyl]-2(1H)-pyrazinone] |
| 122 to 123 °C | CC[C@H](COC)n1cc(Br)nc(N2CCc3cc(OC)cc(Br)c32)c1=O (as salt: hydrochloride) [Example 525, 5-Bromo-3-(7-bromo-5-methoxy-2,3-dihydro-1H-indol-1-yl)-1-[(1R)-1-(methoxymethyl)propyl]-2(1H)-pyrazinone] |
| 126 to 128 °C | CC[C@H](COC)n1cc(Cl)nc(N2CCc3cc(OC)cc(Cl)c32)c1=O (as salt: hydrochloride) [Example 544, 5-Chloro-3-(7-chloro-5-methoxy-2,3-dihydro-1H-indol-1-yl)-1-[(1R)-1-(methoxymethyl)propyl]-2(1H)-pyrazinone] |
| 156 to 158 °C | CC[C@@H](C1CC1)n1cc(Cl)nc(N2CCc3cc(OC)cc(C)c32)c1=O (as salt: hydrochloride) [Example 516, 5-Chloro-1-[(1S)-1-cyclopropylpropyl]-3-(5-methoxy-7-methyl-2,3-dihydro-1H-indol-1-yl)-2(1H)-pyrazinone] |
| 100 to 102 °C | CC[C@@H](COC)n1cc(Cl)nc(N2CCc3cc(OC)cc(Br)c32)c1=O (as salt: hydrochloride) [Example 529, 3-(7-Bromo-5-methoxy-2,3-dihydro-1H-indol-1-yl)-5-chloro-1-[(1S)-1-(methoxymethyl)propyl]-2(1H)-pyrazinone] |
| 164 to 165 °C | CC[C@H](C1CC1)n1cc(Cl)nc(N2CCc3cc(Br)cc(Br)c32)c1=O [Example 512, 5-Chloro-1-[(1R)-1-cyclopropylpropyl]-3-(5,7-dibromo-2,3-dihydro-1H-indol-1-yl)-2(1H)-pyrazinone] |
| 128 to 130 °C | CC[C@@H](C1CC1)n1cc(Cl)nc(N2CCc3cc(OC)cc(Cl)c32)c1=O (as salt: hydrochloride) [Example 514, 5-Chloro-3-(7-chloro-5-methoxy-2,3-dihydro-1H-indol-1-yl)-1-[(1S)-1-cyclopropylpropyl]-2(1H)-pyrazinone] |

— US7205306B2, “Substituted pyrazinones, pyridines and pyrimidines as corticotropin releasing factor ligands” (Bristol-Myers Squibb Pharma Company, priority 2001, dated 2007)
